Values after ≈ are worked out from the molar mass of the structure shown. Where two headings read alike, the source gives them in different places. Some results are limits rather than exact numbers.

The results in this text go back to US8658645B2, “Use of quinolone antibiotics” (Bayer Intellectual Property GmbH, priority 2003, dated 2014).

One assay has as its system Peptostreptococcus. The assay is described as follows: Geometric mean MIC of anaerobic bacteria isolated from dogs and cats (in vitro). It counts as cell-based. To be noted: N=4, isolated from dogs and cats, two in vitro studies, read-out: GMIC (geometric mean of the MIC values). The source says:
(§1) Results of In Vitro Studies Geometric mean of the MIC values (Geometric Mean MIC; GMIC) of anaerobic bacteria isolated from dogs and cats compared to the standard metronidazole (μg/ml).

For another assay, the system named is Bacteroides. The assay is described as above. It counts as cell-based. To be noted: N=37, isolated from dogs and cats, two in vitro studies, read-out: GMIC (geometric mean of the MIC values).
Text: as §1

Another assay concerns Prevotella. The description is as above. The format is cell-based. To be noted: N=25, isolated from dogs and cats, two in vitro studies, read-out: GMIC (geometric mean of the MIC values).
Text: as §1

The subject of the next assay is Fusobacterium. The assay is described as above. It counts as cell-based. To be noted: N=11, isolated from dogs and cats, two in vitro studies, read-out: GMIC (geometric mean of the MIC values).
Text: as §1

The next assay has as its system Porphyromonas. Described as above. The format is cell-based. To be noted: N=8, isolated from dogs and cats, two in vitro studies, read-out: GMIC (geometric mean of the MIC values).
Text: as §1

Another assay has as its system parodontitis. Description: Clinical study for the indication parodontitis. The format is in vivo. To be noted: female beagles, 3 mg/kg once per day for seven days. The method, then:
Clinical Study for the Indication Parodontitis
The study was carried out using 16 female beagles. Pradofloxacin was administered in a dose of 3 mg/kg once per day over a period of seven days.

The subject of another assay is Fusobacterium nucleatum. The assay is described as follows: In vitro MIC, parodontitis-causing bacteria. It counts as cell-based. To be noted: two strains. The method, then: (§2) In this study, in each case two strains of the parodontitis-causing bacteria were isolated, and their sensitivity to pradofloxacin was determined in vitro (MIC μg/ml).
Another assay has as its system Porphyromonas cansulci. The assay is described as follows: In vitro MIC, parodontitis-causing bacteria. It counts as cell-based. To be noted: Porphyromonas crevioricanis, two strains. The method, then: as §2
In assay [1] the test system is Porphyromonas cangingivalis. Description: In vitro MIC, parodontitis-causing bacteria. It counts as cell-based. To be noted: two strains. The method, then: as §2
Another assay concerns Campylobacter rectus. Description: In vitro MIC, parodontitis-causing bacteria. To be noted: two strains. The format is cell-based. The method, then:
as §2

In a further assay the test system is Capnocytophaga ochracea. The assay is described as follows: In vitro MIC, parodontitis-causing bacteria. It counts as cell-based. To be noted: two strains. The method, then: as §2
The next assay deals with Porphyromonas gingivalis. Description: In vitro MIC, parodontitis-causing bacteria. It counts as cell-based. To be noted: two strains. The method, then:
as §2

The next assay has as its system Porphyromonas canons. The assay is described as follows: In vitro MIC, parodontitis-causing bacteria. To be noted: two strains. The format is cell-based. The method, then: as §2
In another assay the test system is Eikenella corrodens. The assay is described as follows: In vitro MIC, parodontitis-causing bacteria. The format is cell-based. To be noted: two strains. The method, then:
as §2

The next assay deals with Prevotella intermedia. The assay is described as follows: In vitro MIC, parodontitis-causing bacteria. It counts as cell-based. To be noted: two strains. The method, then:
as §2

The subject of assay [2] is Actinobacillus actinomycetemcomitans. The assay is described as follows: In vitro MIC, parodontitis-causing bacteria. It counts as cell-based. To be noted: Aggregatibacter actinomycetemcomitans, two strains. The method, then:
as §2

On to `N#Cc1c(N2C[C@@H]3CCCN[C@@H]3C2)c(F)cc2c(=O)c(C(=O)O)cn(C3CC3)c12` [pradofloxacin, 8-cyano-1-cyclopropyl-7-((1S,6S)-2,8-diazabicyclo[4.3.0]nonan-8-yl)-6-fluoro-1,4-dihydro-4-oxo-3-quinolinecarboxylic acid], for which the MIC worked out at 0.4 µg/mL with Peptostreptococcus; 0.4 µg/mL with Bacteroides; 0.2 µg/mL with Prevotella; 0.5 µg/mL with Fusobacterium; 0.1 µg/mL with Porphyromonas; 1 µg/mL (≈ 2.52 µM) in the assay with Fusobacterium nucleatum. The MIC with Fusobacterium nucleatum (read-out: MIC) was 0.5 µg/mL (≈ 1.26 µM); against Porphyromonas cansulci, < 0.25 µg/mL; in [1], 1 µg/mL (≈ 2.52 µM); in [1] (read-out: MIC) it was 0.5 µg/mL (≈ 1.26 µM); against Campylobacter rectus it was < 0.25 µg/mL; against Capnocytophaga ochracea, < 0.25 µg/mL. The MIC (in the assay with Porphyromonas gingivalis; against Porphyromonas canons; in the assay with Eikenella corrodens; in the assay with Prevotella intermedia; in assay [2]) was < 0.25 µg/mL throughout. For the same compound, the “total number of anaerobic bacteria in the periodontal pockets” value in the assay with parodontitis (after the treatment had ended, p<0.0001) is “reduced significantly”; in the assay on parodontitis (three weeks after the treatment, day 28, p=0.0007) it was “reduced significantly”. The “periodontal pocket depth (loss of attachment)” value with parodontitis (p=0.02) is listed as “significant reduction”.
Regarding `Cc1ncc([N+](=O)[O-])n1CCO` [metronidazole, reference compound], the MIC in the assay on Peptostreptococcus came out at 0.8 µg/mL; in the assay with Bacteroides, 0.7 µg/mL; with Prevotella it was 0.4 µg/mL; with Fusobacterium it was 1 µg/mL; in the assay with Porphyromonas, 0.3 µg/mL.
